Measurements taken from patent US20260015350A1, “AZAQUINAZOLINE PAN-KRAS INHIBITORS” (Mirati Therapeutics, Inc., priority 2022, published 2026).

Experiments:
[1] = tested on: KRas-mediated phosphorylation of ERK in AsPC-1 cells; assay: Inhibition of KRas-mediated phosphorylation of ERK (Cisbio HTRF pERK), AsPC-1 cells; type: cell-based; details: Homo sapiens; for IC50: ASPC1, AsPC-1 cells, HTRF pERK; for inhibition at 0.1 µM: ASPC1, 3 h, single point, 100 nM compound, 3 hrs, AsPC-1 cells
Method in brief: (§1)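 Cells were seeded at 6,000 per well and treated for 3 hrs with compound in a 10-dose, 3-fold series from 10 uM (0.8% final DMSO), with 0.2 uM Trametinib as Min control. Lysates made at 4° C over 40 mins were incubated 2 hrs at room temperature with d2- and Cryptate-labelled antibodies, then read by HTRF.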

KRas^G12V = molecular target: T1, KRas^G12V (Homo sapiens, UniProt P01116, G12V); assay: KRas binding assay (TR-FRET tracer displacement), KRas G12V
T1 construct: Biotinylated KRas (corresponding to amino acids 1-169, produced at Accelegan Inc.); biotin (biotinylated); purchased Accelegan Inc
T1 sequence (P01116 1-169 isoform P01116-2 G12V): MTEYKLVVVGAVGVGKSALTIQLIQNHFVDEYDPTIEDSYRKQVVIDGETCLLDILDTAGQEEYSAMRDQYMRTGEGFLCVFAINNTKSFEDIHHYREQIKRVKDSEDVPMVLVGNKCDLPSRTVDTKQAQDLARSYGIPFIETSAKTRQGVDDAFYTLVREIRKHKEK

[2] = tested on: KRas-mediated phosphorylation of ERK in PSN1 cells; assay: Inhibition of KRas-mediated phosphorylation of ERK (Cisbio HTRF pERK), PSN1 cells; type: cell-based; details: Homo sapiens
Protocol: (§2) Inhibition of KRas Phosphorylation of ERK (HTRF) by Exemplary Compounds of Formula (I)
(§3) Cisbio HTRF Advanced PERK Assay Catalog #64AERPEH
(§4) Day 1: Seed 6,000 cells/well-25 μl/well in 384-well white solid bottom plate; RPM1_10% FBS. Incubate overnight at 37° C./5% CO2.
(§5) Incubate for 4 hours at room temperature covered.
(§6) Read HTRF using ClarioStar

[3] = tested on: KRas-mediated phosphorylation of ERK in H727 cells; assay: Inhibition of KRas-mediated phosphorylation of ERK (Cisbio HTRF pERK), H727 cells; type: cell-based; details: Homo sapiens; for IC50: NCI-H727, H727 cells, HTRF pERK; for inhibition at 0.1 µM: NCI-H727, 3 h, single point, 100 nM compound, 3 hrs, H727 cells
Method in brief: as §1

KRas^G12R = molecular target: T2, KRas^G12R (Homo sapiens, UniProt P01116, G12R); assay: KRas binding assay (TR-FRET tracer displacement), KRas G12R
T2 construct: Biotinylated KRas (corresponding to amino acids 1-169, produced at Accelegan Inc.); biotin (biotinylated); purchased Accelegan Inc
T2 sequence (P01116 1-169 isoform P01116-2 G12R): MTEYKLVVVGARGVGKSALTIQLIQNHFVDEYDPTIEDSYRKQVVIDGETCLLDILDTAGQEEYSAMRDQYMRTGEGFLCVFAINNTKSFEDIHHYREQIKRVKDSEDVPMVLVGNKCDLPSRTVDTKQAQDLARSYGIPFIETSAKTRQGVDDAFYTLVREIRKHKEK

KRas^G12D = molecular target: T3, KRas^G12D (Homo sapiens, UniProt P01116, G12D); assay: KRas binding assay (TR-FRET tracer displacement), KRas G12D
T3 construct: Biotinylated KRas (corresponding to amino acids 1-169, produced at Accelegan Inc.); biotin (biotinylated); purchased Accelegan Inc
T3 sequence (P01116 1-169 isoform P01116-2 G12D): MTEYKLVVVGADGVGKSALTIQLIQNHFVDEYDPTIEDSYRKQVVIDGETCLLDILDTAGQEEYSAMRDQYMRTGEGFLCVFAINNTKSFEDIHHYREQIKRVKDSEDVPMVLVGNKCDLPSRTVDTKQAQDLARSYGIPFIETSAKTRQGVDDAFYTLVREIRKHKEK

[4] = tested on: KRas-mediated phosphorylation of ERK in MKN1 cells; assay: Inhibition of KRas-mediated phosphorylation of ERK (Cisbio HTRF pERK), MKN1 cells; type: cell-based; details: Homo sapiens, MKN-1
Protocol: as §2, §3, §4, §5, §6

[5] = tested on: KRas-mediated phosphorylation of ERK in A549 cells; assay: Inhibition of KRas-mediated phosphorylation of ERK (Cisbio HTRF pERK), A549 cells; type: cell-based; details: Homo sapiens; for inhibition at 0.1 µM: A549, 3 h, single point, 100 nM compound, 3 hrs; for IC50: HTRF pERK
Method in brief: (§7)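 A cell-based HTRF pERK assay: ten-point, threefold titrations beginning at 10 uM were applied for 3 hrs, with 0.2 uM Trametinib wells as the minimum control. Cells were lysed cold, and lysate was incubated with the antibody pair for 2 hrs before reading.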

[6] = tested on: KRas-mediated phosphorylation of ERK in H460 cells; assay: Inhibition of KRas-mediated phosphorylation of ERK (Cisbio HTRF pERK), H460 cells; type: cell-based; details: Homo sapiens; for inhibition at 0.1 µM: NCI-H460, 3 h, single point, 100 nM compound, 3 hrs; for IC50: NCI-H460, HTRF pERK
Method in brief: as §1

[7] = tested on: KRas-mediated phosphorylation of ERK in H358 cells; assay: Inhibition of KRas-mediated phosphorylation of ERK (Cisbio HTRF pERK), H358 cells; type: cell-based; details: Homo sapiens; for inhibition at 0.1 µM: NCI-H358, 3 h, single point, 100 nM compound, 3 hrs; for IC50: NCI-H358, HTRF pERK
Method in brief: as §1

[8] = tested on: KRas-mediated phosphorylation of ERK in HCT116 cells; assay: Inhibition of KRas-mediated phosphorylation of ERK (Cisbio HTRF pERK), HCT116 cells; type: cell-based; details: Homo sapiens; for inhibition at 0.1 µM: HCT-116, 3 h, single point, 100 nM compound, 3 hrs; for IC50: HCT-116, HTRF pERK
Method in brief: as §7

Compound | IC50 [1] [nM] | IC50 (KRas^G12V) [nM] | IC50 [2] [nM] | IC50 [3] [nM] | IC50 (KRas^G12R) [nM] | IC50 (KRas^G12D) [nM] | IC50 [4] [nM] | IC50 [5] [nM] | IC50 [6] [nM] | IC50 [7] [nM] | IC50 [8] [nM] | inhibition at 0.1 µM [1] [%] | inhibition at 0.1 µM [5] [%] | inhibition at 0.1 µM [6] [%] | inhibition at 0.1 µM [7] [%] | inhibition at 0.1 µM [3] [%] | inhibition at 0.1 µM [8] [%]
CCc1c(F)ccc2cc(O)cc(-c3ncc4c(N5C[C@H]6C[C@@H](C5)[C@H](O)[C@H]6O)nc(OC[C@@]56CCCN5C[C@H](F)C6)nc4c3F)c12 (single isomer, unassigned) [Example 569] | 5110 | < 2 | > 10000 | 444 | < 2 | 5 | 69 |  |  |  |  |  |  |  |  |  | 
CCc1c(F)ccc2cc(O)cc(-c3ncc4c(N5CCC[C@]6(CC[S@+]([O-])C6)C5)nc(OC[C@@]56CCCN5C[C@H](F)C6)nc4c3F)c12 (single isomer, unassigned) [Example 625] | 4740 | 10 | > 10000 | 2850 | 17 | 21 | 195 |  |  |  |  |  |  |  |  |  | 
CCc1c(F)ccc2cc(O)cc(-c3ncc4c(N5Cc6n[nH]c(CO)c6C5)nc(OC[C@@]56CCCN5C[C@H](F)C6)nc4c3F)c12 [Example 785, 5-ethyl-6-fluoro-4-(8-fluoro-2-(((2R,7aS)-2-fluorohexahydro-1H-pyrrolizin-7a-yl)methoxy)-4-(3-(hydroxymethyl)pyrrolo[3,4-c]pyrazol-5 (2H,4H,6H)-yl)pyrido[4,3-d]pyrimidin-7-yl)naphthalen-2-ol] |  | 435 |  | > 10000 | 787 | 1300 |  |  |  |  |  | -6 | 8 | 0 | 9 | 2 | 5
Cc1c(O)cc2ccccc2c1-c1ncc2c(N3C[C@@H]4C[C@H](C3)[C@H](O)C4)nc(OC[C@@]34CCCN3C[C@H](F)C4)nc2c1F [Example 786, (1R,5R,6R)-3-(8-fluoro-2-(((2R,7aS)-2-fluorohexahydro-1H-pyrrolizin-7a-yl)methoxy)-7-(3-hydroxy-2-methylnaphthalen-1-yl)pyrido[4,3-d]pyrimidin-4-yl)-3-azabicyclo[3.2.1]octan-6-ol] | 4960 | 110 |  | 2820 | 160 | 423 |  |  |  |  |  | 1 | 19 | 8 | -3 | 15 | 0
CCc1c(F)ccc2cc(O)cc(-c3ncc4c(N5CCC[C@@](C)(O)C5)nc(OC[C@]56CCCN5[C@@H](CNS(=O)(=O)N(C)C)CC6)nc4c3F)c12 [Example 787, (R)-1-(7-(8-ethyl-7-fluoro-3-hydroxynaphthalen-1-yl)-8-fluoro-2-(((3R,7aR)-3-(((dimethylsulfamoyl)amino)methyl)tetrahydro-1H-pyrrolizin-7a(5H)-yl)methoxy)pyrido[4,3-d]pyrimidin-4-yl)-3-methylpiperidin-3-ol] | 1670 | 3 |  | 2080 | 6 | 4 |  |  |  |  |  | 23 | 14 | 11 | 8 | 33 | 9
CCc1c(F)ccc2cc(O)cc(-c3ncc4c(N5CCCC6(CC6C#N)C5)nc(OC[C@@]56CCCN5C[C@H](F)C6)nc4c3F)c12 (stereo partly drawn) [Example 851, 5-(7-(8-ethyl-7-fluoro-3-hydroxynaphthalen-1-yl)-8-fluoro-2-(((2R,7aS)-2-fluorotetrahydro-1H-pyrrolizin-7a(5H)-yl)methoxy)pyrido[4,3-d]pyrimidin-4-yl)-5-azaspiro[2.5]octane-1-carbonitrile] | 1210 | 12 |  | 932 | 9 | 36 |  | 397 | 159 | 264 | 475 |  |  |  |  |  | 
C[C@@]1(O)CCCN(c2nc(OC[C@@]34CCCN3C[C@H](F)C4)nc3c(F)c(-c4cc(O)cc5ccccc45)ncc23)C1 [Example 917, (R)-1-(8-fluoro-2-(((2R,7aS)-2-fluorotetrahydro-1H-pyrrolizin-7a(5H)-yl)methoxy)-7-(3-hydroxynaphthalen-1-yl)pyrido[4,3-d]pyrimidin-4-yl)-3-methylpiperidin-3-ol] | 149 | 7 |  | 223 | 12 | 4 |  | 233 | 198 | 54 | 151 |  |  |  |  |  | 

Now from value to molecule, other results behind:

IC50 [1] [nM] | IC50 (KRas^G12V) [nM] | IC50 [2] [nM] | IC50 [3] [nM] | IC50 (KRas^G12R) [nM] | IC50 (KRas^G12D) [nM] | IC50 [4] [nM] | IC50 [5] [nM] | IC50 [6] [nM] | IC50 [7] [nM] | IC50 [8] [nM] | Compound | inhibition at 0.1 µM [1] [%] | inhibition at 0.1 µM [5] [%] | inhibition at 0.1 µM [6] [%] | inhibition at 0.1 µM [7] [%] | inhibition at 0.1 µM [3] [%] | inhibition at 0.1 µM [8] [%]
4030 | 17 | > 10000 | 3990 | 41 | 19 | 834 |  |  |  |  | CCc1c(F)ccc2cc(O)cc(-c3ncc4c(N5CCC[C@@]6(CC[S@+]([O-])C6)C5)nc(OC[C@@]56CCCN5C[C@H](F)C6)nc4c3F)c12 (single isomer, unassigned) [Example 624] |  |  |  |  |  | 
84 | < 2 |  | 45 | 4 | 6 |  |  |  |  |  | CCc1c(F)ccc2c(F)c(O)cc(-c3ncc4c(N5C[C@@H]6C[C@H](C5)[C@H](O)C6)nc(OC[C@@]56CCCN5C[C@H](F)C6)nc4c3F)c12 [Example 778, (1R,5R,6R)-3-(7-(8-ethyl-4,7-difluoro-3-hydroxynaphthalen-1-yl)-8-fluoro-2-(((2R,7aS)-2-fluorohexahydro-1H-pyrrolizin-7a-yl)methoxy)pyrido[4,3-d]pyrimidin-4-yl)-3-azabicyclo[3.2.1]octan-6-ol] | 16 | 69 | 74 | 64 | 36 | 49
> 10000 | 34 |  | > 10000 | 37 | 17 |  | > 10000 | > 10000 | > 10000 | > 10000 | CCc1c(F)ccc2cc(O)cc(-c3ncc4c(N5CC6CNC(CO)C6C5)nc(OC[C@@]56CCCN5C[C@H](F)C6)nc4c3F)c12 (stereo partly drawn) [Example 875, 5-ethyl-6-fluoro-4-(8-fluoro-2-(((2R,7aS)-2-fluorotetrahydro-1H-pyrrolizin-7a(5H)-yl)methoxy)-4-(4-(hydroxymethyl)hexahydropyrrolo[3,4-c]pyrrol-2 (1H)-yl)pyrido[4,3-d]pyrimidin-7-yl)naphthalen-2-ol] |  |  |  |  |  | 
5370 | 240 |  | 4410 | 66 | 692 |  | 3530 | 1290 | 1410 | 6690 | CCOC(=O)C12CCC(CN(c3nc(OC[C@@]45CCCN4C[C@H](F)C5)nc4c(F)c(-c5cc(O)cc6ccc(F)c(CC)c56)ncc34)C1)C2(F)F (stereo partly drawn) [Example 899, ethyl 3-(7-(8-ethyl-7-fluoro-3-hydroxynaphthalen-1-yl)-8-fluoro-2-(((2R,7aS)-2-fluorotetrahydro-1H-pyrrolizin-7a(5H)-yl)methoxy)pyrido[4,3-d]pyrimidin-4-yl)-8,8-difluoro-3-azabicyclo[3.2.1]octane-1-carboxylate] |  |  |  |  |  | 
5800 | 6 |  | 2310 | 8 | 14 |  | 1630 | 630 | 707 | 1730 | CCc1c(F)ccc2cc(O)cc(-c3ncc4c(N5CC6CCC(CC(N)=O)(C6)C5)nc(OC[C@@]56CCCN5C[C@H](F)C6)nc4c3F)c12 (stereo partly drawn) [Example 908, 2-(3-(7-(8-ethyl-7-fluoro-3-hydroxynaphthalen-1-yl)-8-fluoro-2-(((2R,7aS)-2-fluorotetrahydro-1H-pyrrolizin-7a(5H)-yl)methoxy)pyrido[4,3-d]pyrimidin-4-yl)-3-azabicyclo[3.2.1]octan-1-yl)acetamide] |  |  |  |  |  | 
